The test concerns MKP-1. The test can be described thus: In vitro effective dose study (Western blots for MKP-1 on HeLa cells). The test is classed as cell-based. The following applies: HeLa cells incubated with varying concentration; extrapolated.

The structures appear in SMILES notation.

Turning to `CC(=O)OCC(=O)[C@@]1(O)CC[C@H]2[C@@H]3CCC4=CC(=O)C=C[C@]4(C)[C@H]3[C@@H](O)C[C@@]21C` [Prednisolone-21-acetate], the “in vitro effective dose” value is recorded as 5-10 ppm.

The values above are taken from patent US9956168B2, “Extended release drug-delivery contact lenses and methods of making” (Mercy Medical Research Institute, priority 2013, dated 2018).
